One data set has as its system Liver. The data set can be described thus: Covalent protein binding in rat liver at 25 to 75 […], po using radio-labeled compound measured at 6 hrs by scintillation counting method. Format: ADME, organism-based. Conditions: in vivo.
A further data set concerns Plasma. Briefly: Covalent protein binding in rat plasma at 25 to 75 […], po using radio-labeled compound measured at 6 hrs by scintillation counting method. Format: ADME, organism-based.
Data set [1] in a line: Drug level in dog liver at 5 mg/kg, po measured at 24 hrs by RP-HPLC method. Format: ADME, organism-based, Canis lupus familiaris. As to conditions: read-out: Drug uptake.
Data set [2] in a line: Drug level in rat liver at 25 mg/kg, po measured at 24 hrs by RP-HPLC method. Format: ADME, organism-based. As to conditions: read-out: Drug uptake.

Five compounds from ChEMBL document CHEMBL3881528, “Macrocyclic Quinoxaline Compounds as HCV NS3 Protease Inhibitors” (2010) can be followed below.

Each structure is given as a SMILES string.

For the compound `C=C[C@@H]1C[C@]1(NC(=O)[C@@H]1C[C@@H]2CN1C(=O)[C@H](C(C)(C)C)NC(=O)O[C@@H]1C[C@H]1CCCCCc1nc3ccc(OC)cc3nc1O2)C(=O)[N-]S(=O)(=O)C1CC1.[K+]`, the PB with Liver and in the data set on Plasma was 3 pmolequiv/mg each time. For the same compound, the concentration at 24 h in data set [1] was 120 µM; in data set [2], 27.9 µM.

Consider `C=C[C@@H]1C[C@]1(NC(=O)[C@@H]1C[C@@H]2CN1C(=O)[C@H](C(C)(C)C)NC(=O)O[C@@H]1CCC[C@H]1CCCCCc1nc3ccc(OC)cc3cc1O2)C(=O)NS(=O)(=O)C1CC1`, for which the PB in the data set on Liver turned out to be 24 pmolequiv/mg; with Plasma, 6 pmolequiv/mg.

On to `C=C[C@@H]1C[C@]1(NC(=O)[C@@H]1C[C@@H]2CN1C(=O)[C@H](C(C)(C)C)NC(=O)O[C@@H]1C[C@H]1CCCCCc1nc3ccc(OC)cc3cc1O2)C(=O)[N-]S(=O)(=O)C1CC1.[K+]`, for which the concentration at 24 h in data set [1] was found to be 3.3 µM; in data set [2], 8.5 µM.

With `C=C[C@@H]1C[C@]1(NC(=O)[C@@H]1C[C@@H]2CN1C(=O)[C@H](C1CCCC1)NC(=O)O[C@@H]1CCC[C@H]1CCCCCc1nc3ccccc3cc1O2)C(=O)NS(=O)(=O)C1CC1`, the PB turned out to be 63 pmolequiv/mg in the data set with Liver and 6 pmolequiv/mg in the data set on Plasma.

`C=C[C@@H]1C[C@]1(NC(=O)[C@@H]1C[C@@H]2CN1C(=O)[C@H](C1CCCC1)NC(=O)O[C@@H]1CCC[C@H]1CCCCCc1nc3ccccc3nc1O2)C(=O)NS(=O)(=O)C1CC1`: the PB with Liver amounted to 38 pmolequiv/mg; with Plasma it was 15 pmolequiv/mg.
